Test results: patent publication US11338040B2, “Immunomodulatory compounds” (Leidos, Inc., priority 2020, dated 2022)
Non-standard residues stand in square brackets, D forms with d. Residues, ends and D or L forms follow the SMILES beside them. PEG4 = NCCOCCOCCOCCOCCC(=O)O

Experiments:
[1] = target: T1, interaction between LAG3 and MHC-II (Homo sapiens, UniProt P18627); assay: HTRF (TR-FRET) LAG3/MHC-II binding assay; conditions: for response in dilution curve (HTRF signal): 10-fold dilutions starting at 100 μM or 10 μM, FIGS. 2A-9B; for effect on HTRF signal: tested at 100 μM, 10 μM, and 1 μM, FIG. 1
T1 construct: purchased Cisbio US Inc
T1 sequence (P18627 23-450 limits assumed): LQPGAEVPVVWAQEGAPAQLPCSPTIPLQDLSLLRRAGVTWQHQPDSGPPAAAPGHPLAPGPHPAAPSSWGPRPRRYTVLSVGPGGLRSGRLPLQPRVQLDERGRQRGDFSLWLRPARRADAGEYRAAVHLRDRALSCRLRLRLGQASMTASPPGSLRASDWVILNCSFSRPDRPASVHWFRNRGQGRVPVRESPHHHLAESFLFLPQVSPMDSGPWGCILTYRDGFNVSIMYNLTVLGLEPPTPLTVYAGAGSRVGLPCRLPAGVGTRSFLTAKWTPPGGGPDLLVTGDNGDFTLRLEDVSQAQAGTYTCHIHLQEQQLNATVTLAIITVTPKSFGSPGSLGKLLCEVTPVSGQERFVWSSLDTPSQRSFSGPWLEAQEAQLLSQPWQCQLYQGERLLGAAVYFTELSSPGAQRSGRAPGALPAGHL
Excerpt: A Homogeneous Time-resolved Fluorescence (HTRF) LAG3/MHC-II binding assay (Cisbio US Inc.) was used to measure the interaction between MHC-II and LAG3 in the presence of various peptides and peptide conjugates. In this assay, the interaction between Tag1-LAG3 and Tag2-MHC-II is detected by using anti-Tag1-Terbium (HTRF donor) and anti-Tag2-XL665 (HTRF acceptor). When the donor and acceptor antibodies are brought into close proximity due to LAG3 and MHC-II binding, excitation of the donor antibody triggers fluorescent resonance energy transfer (FRET) towards the acceptor antibody, which in turn emits specifically at 665 nm. This specific signal is directly proportional to the extent of LAG3/MHC-II interaction. Thus, an agent that blocks the interaction between LAG3 and MHC-II will cause a reduction in HTRF ratio.
Each of peptide conjugates BT1, BT2, BT3, BT4, BT5, BT6, BT7, BT8, BT9, and peptides LG11 (LAG3-11), LAG3-56 (SEQ ID NO:5), and LAG3-42 (SEQ ID NO:6) was tested at 3 concentrations: 100 μM, 10 μM, and 1 μM. The dashed-lines represent the HTRF ratio readout of a control ovalbumin peptide (OVA, SEQ ID NO:7) (baseline) at the respective concentrations.
peptide conjugates and LG peptides were tested in full dilution curves in the LAG3:MHCII TR-FRET Assay described above to estimate IC50. peptide conjugates were tested starting at 100 μM or 10 μM. LG peptides were tested starting at 100 μM.

PD1 = target: T2, PD1 (Homo sapiens, UniProt Q15116); assay: PD1/PDL1 cell reporter assay (PathHunter, Jurkat PD1/SHP1 EFC cells co-incubated with PDL1-presenting U2OS cells); type: cell-based; conditions: peptide conjugates at 3.6 μM, 10.8 μM, 32.5 μM in triplicate; FIG. 10
T2 construct: expressed in transfected cells; host or cells: Jurkat cells (PD1-EFC and SHP1-EFC) co-cultured with PDL1-presenting U2OS cells
Method: Jurkat cells expressing PD1 and SHP1 proteins, each fused to a fragment of enzyme fragment complementation (EFC) system, were co-incubated with PDL1-presenting U2OS cells. […] Cells in co-culture were incubated at room temperature (RT) for 2 h (PD1 assay). The assay signal was generated using the PathHunter Bioassay Detection kit. Microplates were read following signal generation using a PerkinElmer ENVISION™ instrument for chemiluminescent signal detection. Inhibitory peptides or antibodies added to the culture result in reduction of light signal. The degree of inhibition was calculated using the following formula: Percent inhibition=100%×[1−(mean RLU of test sample−mean RLU of vehicle control)/mean RLU of EC80 control−mean RLU of vehicle control)].
Peptide conjugates BT1-BT11 were tested at three concentrations: 3.6 μM, 10.8 μM, 32.5 μM in triplicate wells. peptide conjugates were dissolved in DMSO and serially diluted in assay buffer. The highest concentration that can be tested in this assay was 32.5 μM peptide conjugate (1% DMSO).
Peptides LD12 (SEQ ID NO:9), LD10 (SEQ ID NO:1), and LD16 (SEQ ID NO:10) were tested at three concentrations: 11 μM, 33 μM, 100 μM in triplicate. LD peptides were dissolved in water and serially diluted in assay buffer. RLUs were measured at the end of the assay, and % Inhibition (% Efficiency) was calculated using the formula above.

[2] = Precipitation on dilution in assay buffer; type: physicochemical; conditions: 100 μM final in assay buffer
Method: FIG. 1 is a graph reporting the results of a TR-FRET assay testing the ability of peptide conjugates and individual peptides to affect the interaction between LAG3 and MHC-II. * indicates precipitation when diluted in assay buffer at 1 mM (100 μM final).

T2 sequence (Q15116 25-288): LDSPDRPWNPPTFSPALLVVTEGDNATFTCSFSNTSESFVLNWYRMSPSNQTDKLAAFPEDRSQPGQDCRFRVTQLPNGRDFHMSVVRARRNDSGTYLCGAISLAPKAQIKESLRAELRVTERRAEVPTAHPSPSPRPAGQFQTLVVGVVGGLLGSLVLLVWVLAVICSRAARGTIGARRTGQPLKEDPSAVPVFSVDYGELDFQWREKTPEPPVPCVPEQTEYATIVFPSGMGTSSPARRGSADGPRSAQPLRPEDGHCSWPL

Row | Compound | response in dilution curve (HTRF signal) [1] | IC50 ([1]; LAG3:MHCII TR-FRET full dilution curves) | effect on HTRF signal [1] | inhibition of PD1 activity (percent inhibition of light signal) (PD1) | precipitation in assay buffer [2]
1 | CC[C@H](C)[C@H](NC(=O)[C@H](CCC(N)=O)NC(=O)CNC(=O)[C@@H](NC(=O)[C@@H](CO)NC(=O)CCOCCOCCOCCOCCNC(=O)[C@H](Cc1c[nH]c2ccccc12)NC(=O)[C@H](CCC(=O)O)NC(=O)CNC(=O)[C@@H](NC(=O)CNC(=O)[C@H](CCC(N)=O)NC(=O)[C@H](Cc1c[nH]c2ccccc12)NC(=O)[C@H](Cc1c[nH]c2ccccc12)NC(=O)[C@H](CC(=O)O)NC(=O)[C@H](CCC(=O)O)NC(=O)[C@@H]1CCCN1C(=O)[C@H](Cc1c[nH]c2ccccc12)NC(=O)[C@H](Cc1c[nH]cn1)NC(=O)[C@H](CC(C)C)NC(=O)[C@@H]1CCCN1C(=O)[C@H](CCC(=O)O)NC(=O)[C@H](Cc1c[nH]c2ccccc12)NC(=O)[C@@H]1CCCN1C(=O)[C@H](C)NC(=O)[C@@H](N)CO)[C@@H](C)O)[C@@H](C)O)C(=O)N[C@@H](CO)C(=O)N[C@H](C(=O)N[C@@H](CC(C)C)C(=O)N[C@@H](CCCNC(=N)N)C(=O)N[C@H](C(=O)N[C@@H](CC(N)=O)C(=O)N[C@H](C(=O)N[C@H](C(=O)N[C@@H](C)C(=O)N1CCC[C@H]1C(=O)N[C@@H](CC(C)C)C(=O)N[C@@H](CO)C(=O)N[C@@H](CCC(N)=O)C(N)=O)[C@@H](C)O)[C@@H](C)CC)C(C)C)[C@@H](C)O [BT2] | reduced the HTRF signal at 10 μM | 8.44 µM | reduced the HTRF signal | did not show inhibition at any of the tested concentrations | precipitation occurred at 100 μM
2 | CC[C@H](C)[C@H](NC(=O)[C@H](CO)NC(=O)[C@@H](NC(=O)[C@H](CC(C)C)NC(=O)[C@H](CCCNC(=N)N)NC(=O)[C@@H](NC(=O)[C@H](CC(N)=O)NC(=O)[C@@H](NC(=O)[C@@H](NC(=O)[C@H](C)NC(=O)[C@@H]1CCCN1C(=O)[C@H](CC(C)C)NC(=O)[C@H](CO)NC(=O)[C@H](CCC(N)=O)NC(=O)CCOCCOCCOCCOCCNC(=O)[C@H](Cc1c[nH]c2ccccc12)NC(=O)[C@H](CCC(=O)O)NC(=O)CNC(=O)[C@@H](NC(=O)CNC(=O)[C@H](CCC(N)=O)NC(=O)[C@H](Cc1c[nH]c2ccccc12)NC(=O)[C@H](Cc1c[nH]c2ccccc12)NC(=O)[C@H](CC(=O)O)NC(=O)[C@H](CCC(=O)O)NC(=O)[C@@H]1CCCN1C(=O)[C@H](Cc1c[nH]c2ccccc12)NC(=O)[C@H](Cc1c[nH]cn1)NC(=O)[C@H](CC(C)C)NC(=O)[C@@H]1CCCN1C(=O)[C@H](CCC(=O)O)NC(=O)[C@H](Cc1c[nH]c2ccccc12)NC(=O)[C@@H]1CCCN1C(=O)[C@H](C)NC(=O)[C@@H](N)CO)[C@@H](C)O)[C@@H](C)O)[C@@H](C)CC)C(C)C)[C@@H](C)O)C(=O)N[C@@H](CCC(N)=O)C(=O)NCC(=O)N[C@H](C(=O)N[C@H](CO)C(N)=O)[C@@H](C)O [BT4] (H-SAPWEPLHWPEDWWQGTGEW[PEG4]QSLPATINVRLTSIQGT[dS]-NH2) | reduced the HTRF signal at 10 μM | – | reduced the HTRF signal | did not show inhibition at any of the tested concentrations | precipitation occurred at 100 μM
3 | CC[C@H](C)[C@H](NC(=O)[C@H](CO)NC(=O)[C@@H](NC(=O)[C@H](CC(C)C)NC(=O)[C@H](CCCNC(=N)N)NC(=O)[C@@H](NC(=O)[C@H](CC(N)=O)NC(=O)[C@@H](NC(=O)[C@@H](NC(=O)[C@H](C)NC(=O)[C@@H]1CCCN1C(=O)[C@H](CC(C)C)NC(=O)[C@H](CO)NC(=O)[C@H](CCC(N)=O)NC(=O)CCOCCOCCOCCOCCNC(=O)[C@H](CO)NC(=O)[C@H](C)NC(=O)[C@@H]1CCCN1C(=O)[C@H](Cc1c[nH]c2ccccc12)NC(=O)[C@H](CCC(=O)O)NC(=O)[C@@H]1CCCN1C(=O)[C@H](CC(C)C)NC(=O)[C@H](Cc1c[nH]cn1)NC(=O)[C@H](Cc1c[nH]c2ccccc12)NC(=O)[C@@H]1CCCN1C(=O)[C@H](CCC(=O)O)NC(=O)[C@H](CC(=O)O)NC(=O)[C@H](Cc1c[nH]c2ccccc12)NC(=O)[C@H](Cc1c[nH]c2ccccc12)NC(=O)[C@H](CCC(N)=O)NC(=O)CNC(=O)[C@@H](NC(=O)CNC(=O)[C@H](CCC(=O)O)NC(=O)[C@@H](N)Cc1c[nH]c2ccccc12)[C@@H](C)O)[C@@H](C)O)[C@@H](C)CC)C(C)C)[C@@H](C)O)C(=O)N[C@@H](CCC(N)=O)C(=O)NCC(=O)N[C@H](C(=O)N[C@H](CO)C(N)=O)[C@@H](C)O [BT5] (H-WEGTGQWWDEPWHLPEWPAS[PEG4]QSLPATINVRLTSIQGT[dS]-NH2) | reduced the HTRF signal at 10 μM | – | reduced the HTRF signal | did not show inhibition at any of the tested concentrations | precipitation occurred at 100 μM
4 | H2N-(dS)TGQISTLRVNITAPLSQ^1-PEG4-SAPWEPLHWPEDWWQGTGEW^3-amide [BT1] | reduced the HTRF signal at 10 μM | – | reduced the HTRF signal | did not show inhibition at any of the tested concentrations | precipitation occurred at 100 μM
